This note sets out measurements from patent US20090291942A1, “IMIDAZO PYRIDINE DERIVATIVES” (priority 2008, published 2009).

Where a name gives a salt, the structure may show the parent alone.

T1 sequence (P46093 whole entry): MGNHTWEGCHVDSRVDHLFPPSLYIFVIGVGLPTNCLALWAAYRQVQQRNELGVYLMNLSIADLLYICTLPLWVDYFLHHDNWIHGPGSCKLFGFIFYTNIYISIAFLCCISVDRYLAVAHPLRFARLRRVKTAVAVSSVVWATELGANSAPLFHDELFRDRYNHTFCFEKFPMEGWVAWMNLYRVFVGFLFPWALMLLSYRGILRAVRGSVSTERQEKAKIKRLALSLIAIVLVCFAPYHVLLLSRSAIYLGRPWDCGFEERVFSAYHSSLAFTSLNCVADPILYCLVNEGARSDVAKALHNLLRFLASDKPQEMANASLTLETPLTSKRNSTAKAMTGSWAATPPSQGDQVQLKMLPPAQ

This assay has as its target T1, human GPR4 (Homo sapiens, UniProt P46093).
T1 construct: expressed in transfected cells
Kind of assay: Cell-based assay for human GPR4 activity (pH-induced cAMP formation, HTRF). The note with it: HeLa cells stably expressing human GPR4, pH-induced cAMP formation. How it is done:
a) Cell-Based Assay for Human GPR4 Activity
HeLa cells stably expressing human GPR4 were established by transfecting the cells with a construct containing the human GPR4 coding sequence. The cells were grown in DMEM/HAM's F12 medium supplemented with 10% fetal calf serum (FCS), 100 u/ml penicillin, 100 μg/ml streptomycin and 400 μg/ml G418 and 10 mM Hepes pH 8.0. pH-induced formation of cAMP was determined using the HTRF technology as provided by CisBio Inc. The cells were seeded in 384-well plates and cultured for 24 hours at 37° C., 5% CO2 before performing the assay. Medium was removed and 10 μl buffer A (HBS, 10 mM Hepes, pH 8, 2 mM IBMX) was added. For compound testing, buffer A with 2× concentrated compounds was used. Cells were incubated for 15 min at room temperature. 10 μl buffer B (HBS, 30 mM Hepes, specific pH) was added to reach the appropriate final pH for stimulation (see below) and incubation was continued for 15 min at room temperature. […] HBS: 130 mM NaCl, 0.9 mM NaH2PO4, 5.4 mM KCl, 0.8 mM MgSO4, CaCl2 1.8 mM, 25 mM glucose, 10-30 mM Hepes. Adjustment of HBS buffers: Bf A Bf B Final stimulation pH (1 volume buffer A+1 volume buffer B)
Compounds were diluted from fresh stock solutions at 10 mM in DMSO to 2 mM and then used for serial dilutions in DMSO.
The compound `CCc1nc2c(C)cc(C)nc2n1Cc1ccc(/C=C/CN2CCC(N3CCCC3)CC2)cc1` [Example 32, 2-Ethyl-5,7-dimethyl-3-{4-[(E)-3-(4-pyrrolidin-1-yl-piperidin-1-yl)-propenyl]-benzyl}-3H-imidazo[4,5-b]pyridine] registered an IC50 of 177 nM.
The figure for `CCc1nc2c(C)cc(C)nc2n1Cc1ccc(/C=C/CN2CCC(N3CCOCC3)CC2)cc1` [Example 34, 2-Ethyl-5,7-dimethyl-3-{4-[(E)-3-(4-morpholin-4-yl-piperidin-1-yl)-propenyl]-benzyl}-3H-imidazo[4,5-b]pyridine dihydrochloride] is 182 nM; for `CCc1nc2c(C)cc(C)nc2n1Cc1ccc(/C=C/CN2CCC(N3CCN(C)CC3)CC2)cc1` [Example 35, 2-Ethyl-5,7-dimethyl-3-(4-{(E)-3-[4-(4-methyl-piperazin-1-yl)-piperidin-1-yl]-propenyl}-benzyl)-3H-imidazo[4,5-b]pyridine] it is 342 nM.
`CCc1nc2c(C)cc(C)nc2n1Cc1ccc(/C=C/CN2CCC(O)CC2)cc1` [Example 36, 1-{(E)-3-[4-(2-Ethyl-5,7-dimethyl-imidazo[4,5-b]pyridin-3-ylmethyl)-phenyl]-allyl}-piperidin-4-ol]: the IC50 came to 477 nM.
Under `CCc1nc2c(C)cc(C)nc2n1Cc1ccc(/C=C/CN2CCC(OC)CC2)cc1` [Example 37, 2-Ethyl-3-{4-[(E)-3-(4-methoxy-piperidin-1-yl)-propenyl]-benzyl}-5,7-dimethyl-3H-imidazo[4,5-b]pyridine] stands 419 nM; under `CCc1nc2c(C)cc(C)nc2n1Cc1ccc(/C=C/CN2CCC(OCC(=O)NC)CC2)cc1` [Example 38, 2-(1-{(E)-3-[4-(2-Ethyl-5,7-dimethyl-imidazo[4,5-b]pyridin-3-ylmethyl)-phenyl]-allyl}-piperidin-4-yloxy)-N-methyl-acetamide], 718 nM.
Under `CCc1nc2c(C)cc(C)nc2n1Cc1ccc(/C=C/CN2CCC(O)(CN3CCOCC3)CC2)cc1` [Example 39, 1-{(E)-3-[4-(2-Ethyl-5,7-dimethyl-imidazo[4,5-b]pyridin-3-ylmethyl)-phenyl]-allyl}-4-morpholin-4-ylmethyl-piperidin-4-ol] stands 280 nM; under `CCc1nc2c(C)cc(C)nc2n1Cc1ccc(/C=C/CN2CCC(c3c[nH]c4ccccc34)CC2)cc1` [Example 40, 2-Ethyl-3-(4-{(E)-3-[4-(1H-indol-3-yl)-piperidin-1-yl]-propenyl}-benzyl)-5,7-dimethyl-3H-imidazo[4,5-b]pyridine hydrochloride], 704 nM; under `CCc1nc2c(C)cc(C)nc2n1Cc1ccc(/C=C/CN2[C@@H]3CC[C@H]2CC(n2cnc4ccccc42)C3)cc1` (stereo partly drawn) [Example 41, 3-{4-[(E)-3-((1R,5S)-3-Benzoimidazol-1-yl-8-aza-bicyclo[3.2.1]oct-8-yl)-propenyl]-benzyl}-2-ethyl-5,7-dimethyl-3H-imidazo[4,5-b]pyridine hydrochloride], 799 nM.
Consider `CCc1nc2c(C)cc(C)nc2n1Cc1ccc(/C=C/CN2CCNCC2)cc1` [Example 42, 2-Ethyl-5,7-dimethyl-3-[4-((E)-3-piperazin-1-yl-propenyl)-benzyl]-3H-imidazo[4,5-b]pyridine], for which half-maximal inhibition (IC50) was put at 162 nM.
The figure for `CCc1nc2c(C)cc(C)nc2n1Cc1ccc(/C=C/CN2CCN(C)CC2)cc1` [Example 43, 2-Ethyl-5,7-dimethyl-3-{4-[(E)-3-(4-methyl-piperazin-1-yl)-propenyl]-benzyl}-3H-imidazo[4,5-b]pyridine] is 139 nM.
Turning to `CCc1nc2c(C)cc(C)nc2n1Cc1ccc(/C=C/CN2CCN(CC)CC2)cc1` [Example 44, 2-Ethyl-3-{4-[(E)-3-(4-ethyl-piperazin-1-yl)-propenyl]-benzyl}-5,7-dimethyl-3H-imidazo[4,5-b]pyridine dihydrochloride], half-maximal inhibition (IC50) was put at 261 nM.
As to `CCCN1CCN(C/C=C/c2ccc(Cn3c(CC)nc4c(C)cc(C)nc43)cc2)CC1` [Example 45, 2-Ethyl-5,7-dimethyl-3-{4-[(E)-3-(4-propyl-piperazin-1-yl)-propenyl]-benzyl}-3H-imidazo[4,5-b]pyridine], half-maximal inhibition (IC50) was put at 46 nM.
With `CCc1nc2c(C)cc(C)nc2n1Cc1ccc(/C=C/CN2CCN(C3CC3)CC2)cc1` [Example 47, 3-{4-[(E)-3-(4-Cyclopropyl-piperazin-1-yl)-propenyl]-benzyl}-2-ethyl-5,7-dimethyl-3H-imidazo[4,5-b]pyridine dihydrochloride], the IC50 came out at 410 nM.
The figure for `CCCCN1CCN(C/C=C/c2ccc(Cn3c(CC)nc4c(C)cc(C)nc43)cc2)CC1` [Example 48, 3-{4-[(E)-3-(4-Butyl-piperazin-1-yl)-propenyl]-benzyl}-2-ethyl-5,7-dimethyl-3H-imidazo[4,5-b]pyridine dihydrochloride] is 194 nM; for `CCc1nc2c(C)cc(C)nc2n1Cc1ccc(/C=C/CN2CCN(C(C)CC)CC2)cc1` (stereo not shown) [Example 49, 3-{4-[(E)-3-(4-sec-Butyl-piperazin-1-yl)-propenyl]-benzyl}-2-ethyl-5,7-dimethyl-3H-imidazo[4,5-b]pyridine] it is 100 nM.
The compound `CCc1nc2c(C)cc(C)nc2n1Cc1ccc(/C=C/CN2CCN(CC(C)C)CC2)cc1` [Example 50, 2-Ethyl-3-{4-[(E)-3-(4-isobutyl-piperazin-1-yl)-propenyl]-benzyl}-5,7-dimethyl-3H-imidazo[4,5-b]pyridine dihydrochloride] came in with an IC50 of 463 nM.
The figure for `CCc1nc2c(C)cc(C)nc2n1Cc1ccc(/C=C/CN2CCN(C(C)(C)C)CC2)cc1` [Example 51, 3-{4-[(E)-3-(4-tert-Butyl-piperazin-1-yl)-propenyl]-benzyl}-2-ethyl-5,7-dimethyl-3H-imidazo[4,5-b]pyridine] is 161 nM.
Under `CCc1nc2c(C)cc(C)nc2n1Cc1ccc(/C=C/CN2CCN(CCC(C)C)CC2)cc1` [Example 52, 2-Ethyl-5,7-dimethyl-3-(4-{(E)-3-[4-(3-methyl-butyl)-piperazin-1-yl]-propenyl}-benzyl)-3H-imidazo[4,5-b]pyridine dihydrochloride] stands 140 nM.
The figure for `CCc1nc2c(C)cc(C)nc2n1Cc1ccc(/C=C/CN2CCN(C(CC)CC)CC2)cc1` [Example 53, 2-Ethyl-3-(4-{(E)-3-[4-(1-ethyl-propyl)-piperazin-1-yl]-propenyl}-benzyl)-5,7-dimethyl-3H-imidazo[4,5-b]pyridine dihydrochloride] is 194 nM; for `CCCC(C)N1CCN(C/C=C/c2ccc(Cn3c(CC)nc4c(C)cc(C)nc43)cc2)CC1` (stereo not shown) [Example 54, 2-Ethyl-5,7-dimethyl-3-(4-{(E)-3-[4-(1-methyl-butyl)-piperazin-1-yl]-propenyl}-benzyl)-3H-imidazo[4,5-b]pyridine dihydrochloride] it is 166 nM.
With `CCc1nc2c(C)cc(C)nc2n1Cc1ccc(/C=C/CN2CCN(CC3CCC3)CC2)cc1` [Example 55, 3-{4-[(E)-3-(4-Cyclobutylmethyl-piperazin-1-yl)-propenyl]-benzyl}-2-ethyl-5,7-dimethyl-3H-imidazo[4,5-b]pyridine dihydrochloride], half-maximal inhibition (IC50) required 86 nM.
Take `CCc1nc2c(C)cc(C)nc2n1Cc1ccc(/C=C/CN2CCN(C3CCCC3)CC2)cc1` [Example 56, 3-{4-[(E)-3-(4-Cyclopentyl-piperazin-1-yl)-propenyl]-benzyl}-2-ethyl-5,7-dimethyl-3H-imidazo[4,5-b]pyridine]: the IC50 turned out to be 165 nM.
The figure for `CCc1nc2c(C)cc(C)nc2n1Cc1ccc(/C=C/CN2CCN(C3CCCCC3)CC2)cc1` [Example 57, 3-{4-[(E)-3-(4-Cyclohexyl-piperazin-1-yl)-propenyl]-benzyl}-2-ethyl-5,7-dimethyl-3H-imidazo[4,5-b]pyridine dihydrochloride] is 121 nM; for `CCc1nc2c(C)cc(C)nc2n1Cc1ccc(/C=C/CN2CCN(CCN(C)C)CC2)cc1` [Example 58, [2-(4-{(E)-3-[4-(2-Ethyl-5,7-dimethyl-imidazo[4,5-b]pyridin-3-ylmethyl)-phenyl]-allyl}-piperazin-1-yl)-ethyl]-dimethyl-amine trihydrochloride] it is 255 nM.
Turning to `CCc1nc2c(C)cc(C)nc2n1Cc1ccc(/C=C/CN2CCN(CCCN(C)C)CC2)cc1` [Example 59, [3-(4-{(E)-3-[4-(2-Ethyl-5,7-dimethyl-imidazo[4,5-b]pyridin-3-ylmethyl)-phenyl]-allyl}-piperazin-1-yl)-propyl]-dimethyl-amine dihydrochloride], it took 231 nM to reach half-maximal inhibition (IC50).
The figure for `CCc1nc2c(C)cc(C)nc2n1Cc1ccc(/C=C/CN2CCN(CCN(CC)CC)CC2)cc1` [Example 60, Diethyl-[2-(4-{(E)-3-[4-(2-ethyl-5,7-dimethyl-imidazo[4,5-b]pyridin-3-ylmethyl)-phenyl]-allyl}-piperazin-1-yl)-ethyl]-amine hydrochloride] is 995 nM; for `CCc1nc2c(C)cc(C)nc2n1Cc1ccc(/C=C/CN2CCN(CCN(C(C)C)C(C)C)CC2)cc1` [Example 61, [2-(4-{(E)-3-[4-(2-Ethyl-5,7-dimethyl-imidazo[4,5-b]pyridin-3-ylmethyl)-phenyl]-allyl}-piperazin-1-yl)-ethyl]-diisopropyl-amine trihydrochloride] it is 499 nM.
